Drawing on BindingDB's records for patent US11472769 (Eccogene (Shanghai) Co., Ltd., 2022), this text covers IC50 for 37 compounds.

The target in this experiment is T1, Amine oxidase [copper-containing] 3 (Homo sapiens, UniProt Q16853).
T1 construct: gene AOC3
T1 sequence (Q16853 whole entry, looked up): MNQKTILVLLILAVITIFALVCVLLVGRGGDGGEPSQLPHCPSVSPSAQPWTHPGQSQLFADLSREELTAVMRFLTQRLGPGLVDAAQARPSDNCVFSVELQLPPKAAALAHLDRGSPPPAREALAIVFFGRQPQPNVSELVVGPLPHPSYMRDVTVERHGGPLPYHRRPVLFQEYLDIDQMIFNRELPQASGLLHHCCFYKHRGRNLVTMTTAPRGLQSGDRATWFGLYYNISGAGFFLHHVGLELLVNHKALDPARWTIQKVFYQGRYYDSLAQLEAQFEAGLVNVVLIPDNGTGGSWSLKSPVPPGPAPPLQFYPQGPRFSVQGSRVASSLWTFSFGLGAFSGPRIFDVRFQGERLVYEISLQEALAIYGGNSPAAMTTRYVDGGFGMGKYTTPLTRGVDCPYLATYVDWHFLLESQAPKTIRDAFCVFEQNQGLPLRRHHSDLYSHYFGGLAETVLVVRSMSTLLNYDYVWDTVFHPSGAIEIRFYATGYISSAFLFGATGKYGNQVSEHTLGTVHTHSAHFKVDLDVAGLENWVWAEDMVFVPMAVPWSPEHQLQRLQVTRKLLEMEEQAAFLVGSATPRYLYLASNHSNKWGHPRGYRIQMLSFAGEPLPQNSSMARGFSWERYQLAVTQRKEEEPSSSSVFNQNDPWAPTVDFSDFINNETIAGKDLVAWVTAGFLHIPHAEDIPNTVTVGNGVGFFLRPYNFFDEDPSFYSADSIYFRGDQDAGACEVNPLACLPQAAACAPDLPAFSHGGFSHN
Description: SSAO Activity Assay. The method, then:
Amine oxidase activity of recombinant hSSAO, hMAO-A, and hMAO-B isoforms are measured using the MAO-Glo assay kit (Promega, V1402). Ten nL test compounds (with DMSO as vehicle, 0.1% v/v for hSSAO, hMAO-A and hMAO-B) were added into assay plates by Echo, and pre-incubated with 5 μL of enzyme for 30 mins at room temperature before the addition of 5 μL of luminogenic substrate. The substrate concentration is 40 μM for human recombinant SSAO, 40 μM for human recombinant MAO-A, and 4 μM for human recombinant MAO-B. The hSSAO and hMAO-A assays were conducted in the MAO-A reaction buffer in the kit, and the MAO-B assay was conducted in the MAO-B reaction buffer. Oxidation of the substrate was conducted for 1 hr, before the addition of detecting reagent according the manufacture's protocol. The IC50 value of the tested compounds was calculated by fitting the dose response curve using a 4-parameter non-linear regression routine.
As a reminder, the IC50 is the midpoint of a concentration-inhibition curve. With `NC/C(=C\F)COc1ccc(S(=O)(=O)C[C@H]2CCOC2)cc1` [US11472769, Compound 22], the IC50 result is “in the range around 60 nM”. Turning to `NC/C(=C\F)COc1ccc(S(=O)(=O)CC23CCC(C(=O)O)(CC2)CC3)cc1` [US11472769, Compound 146], the half-inhibitory concentration (IC50) result was “in the range around 60 nM”.

`NC/C(=C\F)COc1ccc(S(=O)(=O)COCC2CCOCC2)cc1` [US11472769, Compound 30] returned a concentration for half-maximal inhibition (IC50) below 20 nM. With `N#CC12CCC(CS(=O)(=O)c3ccc(OC/C(=C/F)CN)cc3)(CC1)CC2` [US11472769, Compound 87], the IC50 is below 20 nM. Next, `NC/C(=C\F)COc1ccc(S(=O)(=O)C[C@@H]2CCOC2)cc1` [US11472769, Compound 21]: “in the range around 60 nM”; `CC1CCN(C23CCC(CS(=O)(=O)c4ccc(OC/C(=C/F)CN)cc4)(CC2)CC3)C1=O` (configuration not stated) [US11472769, Compound 83]: below 20 nM; `NC/C(=C\F)COc1ccc(S(=O)(=O)CC23CCC(C4(O)CC4)(CC2)CC3)cc1` [US11472769, Compound 18]: below 20 nM. Under `CC1(CS(=O)(=O)c2ccc(OC/C(=C/F)CN)cc2)CCOCC1` [US11472769, Compound 5] stands below 20 nM. In turn, `NC/C(=C\F)COc1ccc(S(=O)(=O)C[C@H]2CCCO2)cc1` [US11472769, Compound 24] came in with an IC50 below 20 nM. For the compound `NC/C(=C\F)COc1ccc(S(=O)(=O)CC2CCN(C(=O)c3ccc(F)cc3)CC2)cc1` [US11472769, Compound 39], the half-inhibitory concentration (IC50) is below 20 nM. With `CC1(CS(=O)(=O)c2ccc(OC/C(=C/F)CN)cc2F)CCOCC1` [US11472769, Compound 7], the IC50 was below 20 nM. As for `C[C@@H](CN1CCOCC1)CS(=O)(=O)c1ccc(OC/C(=C/F)CN)cc1` [US11472769, Compound 113], the IC50 was below 20 nM. Consider `NC/C(=C\F)COc1ccc(S(=O)(=O)C[C@H]2CC[C@H](O)CC2)cc1` [US11472769, Compound 14], for which the IC50 result was “in the range around 60 nM”. For the compound `CO[C@H]1CC[C@@H](CS(=O)(=O)c2ccc(OC/C(=C/F)CN)cc2)CC1` [US11472769, Compound 20], the 50% inhibitory concentration (IC50) is below 20 nM. Next, `C[C@H](CN1CCCC1=O)CS(=O)(=O)c1ccc(OC/C(=C/F)CN)cc1` [US11472769, Compound 93]: above 500 nM; `NC/C(=C\F)COc1ccc(S(=O)(=O)C[C@H]2CC[C@@H](O)CC2)cc1` [US11472769, Compound 15]: below 20 nM.

As for `NC/C(=C\F)COc1ccc(S(=O)(=O)CC2CCCN(C(=O)C3CCCC3)C2)cc1` (configuration not stated) [US11472769, Compound 100], the IC50 entry is “in the range around 60 nM”.

In turn, `CC(C)n1nc(CS(=O)(=O)c2ccc(OC/C(=C/F)CN)cc2)ccc1=O` [US11472769, Compound 102] gave an IC50 below 20 nM.

Compound `NC/C(=C\F)COc1ccc(S(=O)(=O)CC23CCC(NC(=O)CC(F)(F)F)(CC2)CC3)cc1` [US11472769, Compound 79] yielded an IC50 below 20 nM. Consider `CO[C@H]1CC[C@H](CS(=O)(=O)c2ccc(OC/C(=C/F)CN)cc2)CC1` [US11472769, Compound 19], for which the IC50 was below 20 nM. For the compound `C[C@@H](CN1CCCC1=O)CS(=O)(=O)c1ccc(OC/C(=C/F)CN)cc1` [US11472769, Compound 94], the IC50 result is “in the range around 60 nM”. The compound `NC/C(=C/F)COc1ccc(S(=O)(=O)CC23CCC(NC(=O)C4CC4)(CC2)CC3)cc1` [US11472769, Compound 139] showed an IC50 below 20 nM. Regarding `C[C@H](CN1CCC2(CCCC2)C1=O)CS(=O)(=O)c1ccc(OC/C(=C/F)CN)cc1` [US11472769, Compound 109], the IC50 entry is “in the range around 60 nM”. In the case of `C[C@H](CN1CCCCC1=O)CS(=O)(=O)c1ccc(OC/C(=C/F)CN)cc1` [US11472769, Compound 104], the IC50 entry was “in the range around 60 nM”.

Regarding `NC/C(=C\F)COc1ccc(S(=O)(=O)C[C@@H]2CCCO2)cc1` [US11472769, Compound 23], the IC50 entry is “in the range around 60 nM”. Turning to `C[C@@H](CN1CCCCC1=O)CS(=O)(=O)c1ccc(OC/C(=C/F)CN)cc1` [US11472769, Compound 105], the IC50 result was “in the range around 60 nM”. As for `CC(C)C(=O)N(C)CC(C)(C)CS(=O)(=O)c1ccc(OC/C(=C/F)CN)cc1` [US11472769, Compound 96], the IC50 was below 20 nM. `NC/C(=C\F)COc1ccc(S(=O)(=O)C[C@H]2CC[C@H](NC(=O)C3CC3)CC2)cc1` [US11472769, Compound 88] returned an IC50 below 20 nM.

In the case of `NC/C(=C\F)COc1ccc(S(=O)(=O)CC23CCC(N4CCCS4(=O)=O)(CC2)CC3)cc1` [US11472769, Compound 82], the IC50 was below 20 nM. Next, `NC/C(=C\F)COc1ccc(S(=O)(=O)CC23CCC(NC(=O)C4CC4)(CC2)CC3)cc1` [US11472769, Compound 76]: below 20 nM; `COCS(=O)(=O)c1ccc(OC/C(=C/F)CN)cc1` [US11472769, Compound 28]: below 20 nM; `NC/C(=C\F)COc1ccc(S(=O)(=O)Cc2ccc(C(=O)N3CCCC3)cc2)cc1` [US11472769, Compound 46]: “in the range around 60 nM”.

For `C[C@@H](CN1CCC2(CCCC2)C1=O)CS(=O)(=O)c1ccc(OC/C(=C/F)CN)cc1` [US11472769, Compound 110], the IC50 entry was “in the range around 60 nM”. In turn, `NC/C(=C\F)COc1ccc(S(=O)(=O)CC2CCOCC2)cc1` [US11472769, Compound 1] showed an IC50 below 20 nM.

`NC/C(=C\F)COc1ccc(S(=O)(=O)CC2CCOCC2)cc1F` [US11472769, Compound 9] showed an IC50 below 20 nM. With `C[C@H](CN1CCOCC1)CS(=O)(=O)c1ccc(OC/C(=C/F)CN)cc1` [US11472769, Compound 112], the 50% inhibitory concentration (IC50) entry was “in the range around 60 nM”.

On to `NC/C(=C\F)COc1ccc(S(=O)(=O)CC23CCC(C(=O)NC4CCC4)(CC2)CC3)cc1` [US11472769, Compound 64], for which the IC50 was below 20 nM.
